# Where a SMILES comes first, the peptide text is derived from it. The star is where a group is joined. βNA = c1ccc2cc(N*)ccc2c1
# Legend:
# Staphylococcus aureus [1] = test: Inhibition of biofilm formation in Staphylococcus aureus ATCC 29213 at 1.5 ug/ml after 24 hrs by MTT assay; type: functional; settings: ATCC 29213, 24 h
# Staphylococcus aureus [2] = test: Inhibition of biofilm formation in Staphylococcus aureus ATCC 25923 at 1.5 ug/ml after 24 hrs by MTT assay; type: functional; settings: ATCC 25923, 24 h
# Staphylococcus aureus [3] = test: Inhibition of biofilm formation in Staphylococcus aureus ATCC 657 at 1.5 ug/ml after 24 hrs by MTT assay; type: functional; settings: ATCC 657, 24 h
# Staphylococcus aureus [4] = test: Inhibition of biofilm formation in Staphylococcus aureus ATCC 702 at 1.5 ug/ml after 24 hrs by MTT assay; type: functional; settings: ATCC 702, 24 h
# [5] = system: Staphylococcus epidermidis; test: Inhibition of biofilm formation in Staphylococcus epidermidis DSM 3269 at 1.5 ug/ml after 24 hrs by MTT assay; type: functional; settings: DSM 3269, 24 h
# [6] = system: Staphylococcus epidermidis; test: Inhibition of biofilm formation in Staphylococcus epidermidis RP62A at 1.5 ug/ml after 24 hrs by MTT assay; type: functional
# [7] = Inhibition of Klebsiella pneumoniae NP6 KPC-2 expressed in Escherichia coli DH5alpha
# Escherichia coli [8] = test: Antibacterial activity against multi drug-resistant Escherichia coli KG4 after 24 hrs by serial dilution method; type: functional; settings: KG4, 24 h
# Escherichia coli [9] = test: Antibacterial activity against multi drug-resistant Escherichia coli KG1 after 24 hrs by serial dilution method; type: functional; settings: KG1, 24 h
# Escherichia coli [10] = test: Antibacterial activity against multi drug-resistant Escherichia coli EM5 mutant after 24 hrs by serial dilution method; type: functional
# Escherichia coli [11] = test: Antibacterial activity against multi drug-resistant Escherichia coli EM7 mutant after 24 hrs by serial dilution method; type: functional
# Escherichia coli [12] = test: Antibacterial activity against multi drug-sensitive Escherichia coli MTCC 739 after 24 hrs by serial dilution method; type: functional; settings: MTCC 739, 24 h
# Escherichia coli [13] = test: Potentiation of tetracycline induced-antimicrobial activity against Escherichia coli assessed as fold reduction in tetracycline MIC at 25 ug/ml after 24 hrs by broth checkerboard method; type: functional
# Staphylococcus aureus [14] = test: Antibacterial activity against Staphylococcus aureus ATCC 25923 after 24 hrs by broth microdilution method; type: functional; settings: ATCC 25923, 24 h
# Staphylococcus aureus [15] = test: Antibacterial activity against Staphylococcus aureus 1199B after 24 hrs by broth microdilution method; type: functional
# [16] = biological target: T1, Quinolone resistance protein NorA (Staphylococcus aureus) (UniProt P0A0J7); test: Inhibition of Staphylococcus aureus 1199B NorA assessed as potentiation of ciprofloxacin-induced antibacterial activity at 32 ug/ml after 24 hrs (reference value: 16 ug/ml)
# T1 sequence (whole entry): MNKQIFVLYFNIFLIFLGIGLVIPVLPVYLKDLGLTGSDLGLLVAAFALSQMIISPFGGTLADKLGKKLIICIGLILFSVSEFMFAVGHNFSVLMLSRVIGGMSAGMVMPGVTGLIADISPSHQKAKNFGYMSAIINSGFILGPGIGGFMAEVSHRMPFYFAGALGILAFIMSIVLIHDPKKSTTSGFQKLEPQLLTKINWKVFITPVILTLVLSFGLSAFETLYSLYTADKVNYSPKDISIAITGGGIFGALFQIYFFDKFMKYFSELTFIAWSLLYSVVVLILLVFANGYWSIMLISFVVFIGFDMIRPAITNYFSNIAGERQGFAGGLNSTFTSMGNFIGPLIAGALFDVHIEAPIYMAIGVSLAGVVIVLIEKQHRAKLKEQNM
# [17] = Inhibition of bacterial AmpC; set-up: species or system Bacteria
# [18] = Inhibition of Escherichia coli KPC-2 using nitrocefin as substrate preincubated for 5 mins followed by substrate addition
# [19] = Inhibition of Escherichia coli SHV-1 using nitrocefin as substrate preincubated for 5 mins followed by substrate addition
# [20] = biological target: T1, Quinolone resistance protein NorA (Staphylococcus aureus); test: Inhibition of Staphylococcus aureus 1199B NorA assessed as potentiation of ciprofloxacin-induced antibacterial activity by measuring fold reduction in ciprofloxacin MIC at 12.5 to 25 uM
# Staphylococcus aureus [21] = test: Antibiofilm activity against methicillin-resistant Staphylococcus aureus BAA-44 at 100 uM after 24 hrs by crystal violet staining based assay; type: functional; settings: BAA-44, 24 h
# [22] = Inhibition of Mycobacterium tuberculosis Eis
# Pseudomonas aeruginosa [23] = test: Inhibition of Pseudomonas aeruginosa MexAB-Oprm assessed as potentiation of ciprofloxacin-induced antibacterial activity at 50 ug/ml (reference value: 16 ug/ml)
# Pseudomonas aeruginosa [24] = test: Inhibition of Pseudomonas aeruginosa MexAB-Oprm assessed as potentiation of levofloxacin-induced antibacterial activity at 50 ug/ml (reference value: 16 ug/ml)
# [25] = biological target: T2, Quinolone resistance protein NorA (Staphylococcus aureus, UniProt P0A0J7); test: Inhibition of Staphylococcus aureus 1199B NorA assessed as reduction in ethidium bromide efflux by fluorescence assay
# T2 sequence (P0A0J7 whole entry): T1 sequence (whole entry)
# [26] = Inhibition of bacterial IMP-1 using nitrocefin as substrate; set-up: species or system Bacteria
# Staphylococcus aureus [27] = test: Antibiofilm activity against methicillin-resistant Staphylococcus aureus BAA-44 after 24 hrs by crystal violet staining based assay; type: functional; settings: BAA-44, 24 h
# [28] = Inhibition of bacterial KPC by measuring nitrocefin degradation; set-up: species or system Bacteria
# [29] = Inhibition of bacterial CTX-M by measuring nitrocefin degradation; set-up: species or system Bacteria
# [30] = Inhibition of bacterial SHV by measuring nitrocefin degradation; set-up: species or system Bacteria
# [31] = Inhibition of bacterial CMY by measuring nitrocefin degradation; set-up: species or system Bacteria
smiles,measurement,setting,value
O=C(c1cc(Br)ccc1O)c1[nH]c(Br)c(Cl)c1Br,inhibition at 1.5 µg/mL,Staphylococcus aureus [1],> 60%
same,inhibition at 1.5 µg/mL,Staphylococcus aureus [2],> 60%
same,inhibition at 1.5 µg/mL,Staphylococcus aureus [3],> 60%
same,inhibition at 1.5 µg/mL,Staphylococcus aureus [4],> 60%
same,inhibition at 1.5 µg/mL,[5],> 60%
same,inhibition at 1.5 µg/mL,[6],> 60%
CC(=O)Nc1ccc(S(=O)(=O)Nc2ccccc2NS(=O)(=O)c2ccc(NC(C)=O)cc2)cc1,IC50,[7],200000 nM
O=C1CC[C@H](O)c2ccccc21 [(-)-4-HYDROXY-ALPHA-TETRALONE],MIC,Escherichia coli [8],250 to 1000 µg/mL
same,MIC,Escherichia coli [9],250 to 1000 µg/mL
same,MIC,Escherichia coli [10],250 to 1000 µg/mL
same,MIC,Escherichia coli [11],250 to 1000 µg/mL
same,MIC,Escherichia coli [12],250 to 1000 µg/mL
same,fold change (FC),Escherichia coli [13],4
O=C(NC(C(=O)O)c1c[nH]c2ccc(Br)cc12)c1c[nH]c2ccc(Br)cc12 (configuration not stated),MIC,Staphylococcus aureus [14],> 32 µg/mL
same,MIC,Staphylococcus aureus [15],> 32 µg/mL
same,MIC,[16],4 µg/mL
O=S(=O)(NCB(O)O)c1ccc(-c2nnn[nH]2)cc1C(F)(F)F,Ki,[17],0.05 nM
O=C(Cc1cccs1)NC(Cn1cc(C(=O)O)nn1)B(O)O (configuration not stated),IC50,[18],84 nM
same,IC50,[19],130 nM
COc1cc(CNC(=O)CCCC/C=C/C(C)C)ccc1O,fold change (FC),[20],2 to 4
O=C(c1cc(Cl)cc(Cl)c1O)c1[nH]c(Cl)c(Cl)c1Cl,inhibition at 1.5 µg/mL,Staphylococcus aureus [1],> 60%
same,inhibition at 1.5 µg/mL,Staphylococcus aureus [2],> 60%
same,inhibition at 1.5 µg/mL,Staphylococcus aureus [3],> 60%
same,inhibition at 1.5 µg/mL,Staphylococcus aureus [4],> 60%
same,inhibition at 1.5 µg/mL,[5],> 60%
same,inhibition at 1.5 µg/mL,[6],> 60%
CCCCCc1ccc(/C=C(\C)Cn2cc(CCCCCc3c[nH]c(N)n3)nn2)cc1,inhibition at 100 µM,Staphylococcus aureus [21],> 94%
O=C(C[n+]1ccn2cccc2c1-c1ccccc1)c1ccccc1,IC50,[22],188 nM
N=C(N)NCCC[C@H](NC(=O)[C@@H](N)Cc1ccccc1)C(=O)Nc1ccc2ccccc2c1 (H-Phe-Arg-βNA),MIC,Pseudomonas aeruginosa [23],2 µg/mL
same,MIC,Pseudomonas aeruginosa [24],2 µg/mL
CC(C)(C)OC(=O)NCC(NC(=O)c1c[nH]c2ccccc12)c1c[nH]c2ccccc12 (configuration not stated),MIC,Staphylococcus aureus [14],> 32 µg/mL
same,MIC,Staphylococcus aureus [15],> 32 µg/mL
COC(=O)[C@H]1[C@H]2C[C@@H]3c4[nH]c5cc(OC)ccc5c4CCN3C[C@H]2C[C@@H](OC(=O)c2cc(OC)c(OC)c(OC)c2)[C@@H]1OC [RESERPINE],IC50,[25],9000 to 14000 nM
O=C(O)[C@@H](Cc1ccc2c(c1)OCO2)[C@@H](Cc1ccc2c(c1)OCO2)C(=O)O,IC50,[26],200000 nM
O=C(c1cc(Br)cc(Br)c1O)c1[nH]c(Br)c(Br)c1Br,inhibition at 1.5 µg/mL,Staphylococcus aureus [1],68.5 to 100%
same,inhibition at 1.5 µg/mL,Staphylococcus aureus [2],68.5 to 100%
same,inhibition at 1.5 µg/mL,Staphylococcus aureus [3],68.5 to 100%
same,inhibition at 1.5 µg/mL,Staphylococcus aureus [4],68.5 to 100%
same,inhibition at 1.5 µg/mL,[5],68.5 to 100%
same,inhibition at 1.5 µg/mL,[6],68.5 to 100%
C/C(=C\c1cccc2ccccc12)Cn1cc(CCCCCc2c[nH]c(N)n2)nn1,inhibition at 100 µM,Staphylococcus aureus [21],> 94%
same,IC50,Staphylococcus aureus [27],9860 nM
CCCCCCCCCCCCCC(=O)O[C@H]1CCC(=O)c2ccccc21 [4-O-MYRICITOYL-ALPHA-TETRALONE],MIC,Escherichia coli [8],250 to 1000 µg/mL
same,MIC,Escherichia coli [9],250 to 1000 µg/mL
same,MIC,Escherichia coli [10],250 to 1000 µg/mL
same,MIC,Escherichia coli [11],250 to 1000 µg/mL
same,MIC,Escherichia coli [12],250 to 1000 µg/mL
"COc1cc(C(=O)O[C@H]2CCC(=O)c3ccccc32)cc(OC)c1OC [4-O-(3,4,5-TRIMETHOXYBENZOYL)-ALPHA-TETRALONE]",MIC,Escherichia coli [8],250 to 1000 µg/mL
same,MIC,Escherichia coli [9],250 to 1000 µg/mL
same,MIC,Escherichia coli [10],250 to 1000 µg/mL
same,MIC,Escherichia coli [11],250 to 1000 µg/mL
same,MIC,Escherichia coli [12],250 to 1000 µg/mL
same,fold change (FC),Escherichia coli [13],8
O=C(O)C[C@@H]1CC[C@H](NC(=O)Cc2cccs2)B(O)O1 [VABORBACTAM],Ki,[28],29 to 99 nM
same,Ki,[29],29 to 99 nM
same,Ki,[30],29 to 99 nM
same,Ki,[31],29 to 99 nM
